Measured values taken from PubChem BioAssay (NCI).
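A five-concentration, 48-hour dose response in 96-well plates underlies each endpoint, interpolated linearly between surrounding concentrations. TGI: total growth inhibition.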

Key:
Assay in all cases: inhibition of tumour cell growth, NCI panel, 48 h
[1] = test system: SK-OV-3 ovarian
[2] = test system: SF-539 CNS
[3] = test system: CAKI-1 renal
[4] = test system: NCI-H522 lung
[5] = test system: MDA-N
[6] = test system: HOP-92 NSCLC
[7] = test system: HS 578T breast
[8] = test system: HCT-116 colon
[9] = test system: U251 CNS
[10] = test system: UO-31 renal
[11] = test system: T-47D breast
[12] = test system: COLO 205 colon
[13] = test system: RXF 393 renal
[14] = test system: SR leukemia
[15] = test system: A498 renal
[16] = test system: EKVX NSCLC
[17] = test system: ACHN renal
[18] = test system: IGROV1 ovarian
[19] = test system: HCT-15 colon
[20] = test system: SK-MEL-5 melanoma
[21] = test system: TK-10 renal
[22] = test system: HL-60(TB) leukemia
[23] = test system: UACC-257 melanoma
[24] = test system: SF-268 CNS
[25] = test system: SN12C renal
[26] = test system: NCI-H460 lung
[27] = test system: NCI-H226 lung
[28] = test system: KM12 colon
[29] = test system: MDA-MB-231 breast
[30] = test system: 786-0 renal
[31] = test system: HT29 colon
[32] = test system: MOLT-4 leukemia
[33] = test system: HCC-2998 colon
[34] = test system: SW-620 colon
[35] = test system: MDA-MB-435
[36] = test system: OVCAR-4 ovarian
[37] = test system: NCI-H23 lung
[38] = test system: M14 melanoma
[39] = test system: K-562 leukemia
[40] = test system: DU-145 prostate
[41] = test system: LOX IMVI melanoma
[42] = test system: A549 NSCLC
[43] = test system: BT-549 breast
[44] = test system: RPMI-8226 leukemia
[45] = test system: OVCAR-3 ovarian
[46] = test system: CCRF-CEM leukemia
[47] = test system: SNB-19 CNS
[48] = test system: SK-MEL-28 melanoma
[49] = test system: OVCAR-8 ovarian
[50] = test system: SK-MEL-2 melanoma
[51] = test system: HOP-62 NSCLC
[52] = test system: UACC-62 melanoma
[53] = test system: PC-3 prostate
[54] = test system: SNB-75 CNS
[55] = test system: MALME-3M melanoma
[56] = test system: OVCAR-5 ovarian
[57] = test system: SF-295 CNS

Measured: TGI

C=C1C(O)C23CCC4C(C(=O)O)(C(=O)O)CC(OC5OC(CO)C(O)C(OC(=O)CCc6ccccc6)C5NC(=O)CC(C)C)CC4(C)C2CCC1(O)C3 (configuration not stated)
> 100 µM: all assays above
